Source: patent publication US8222202B2 (priority 2006, dated 2012)
Like-named read-outs stand apart in the source and are kept apart here. Starred links: 1 amine or outer side, 2 acyl side, 3 side chain; linkers in the order of their positions; H or OH if unused. Positions of bridges follow the written chain, without caps; N, C: chain ends. Non-standard residues stand in square brackets, D forms with d. Residues, ends and D or L forms follow the SMILES beside them. *: point of attachment. X3 = CC(C)CCNCCC[C@H](N[*:1])C(=O)[*:2]; Ala(2-furyl) = N[C@@H](Cc1ccco1)C(=O)O; Orn(iPr) = CC(C)NCCC[C@H](N)C(=O)O; 2Thi = N[C@@H](Cc1cccs1)C(=O)O; 3Thi = N[C@@H](Cc1ccsc1)C(=O)O; Aad = N[C@@H](CCCC(=O)O)C(=O)O; Orn = NCCC[C@H](N)C(=O)O; Dab = NCC[C@H](N)C(=O)O; X4 = OCCOCCN*

How the values were obtained:
[1] = system: anaesthetised Sprague-Dawley male rats; experiment: in vivo duration of action, blood pressure test in anaesthetised rats; design: species or system rat; conditions: ratio of decay rate of diastolic blood pressure response, AVP 0.1 nmol/kg i.v. to equieffective dose of compound; dibenamine-pretreated rats
Protocol: Blood pressure tests were carried out on anaesthetised Sprague-Dawley male rats (weighing 270-300 g) with catheterised jugular vein and carotid artery. The catheterised carotid artery was used to continuously monitor blood pressure and the jugular vein was used for administration of the compounds tested. Rats received intravenous injections of dibenamine prior to dosing to enhance their responsiveness to V1a receptor agonists (cf. Dekanski, J., Br. J. Pharmacol. 1952, 7, 567-572). […] Dosing intervals were set as time for the blood pressure to decrease to a stable baseline.
Determination of duration of action was based on the decay rate of diastolic arterial blood pressure transient increase. Specifically, for an exponential decay of plasma concentration, it can be shown that, if the response is measured beyond the distribution phase, the rate of decay near the EC50 is linear and inversely proportional to the elimination half-life (Rowland, M. and Tozer, T. in “Clinical Pharmacokinetics, Concepts and Applications”, 3rd ed., Lippincott Williams & Wilkins, Philadelphia, 1995).

[2] = target: T1, human oxytocin (hOT) receptor (Homo sapiens, UniProt P30559); experiment: luciferase-based transcriptional reporter assay, selectivity hOT versus hV1a; assay type: cell-based
T1 construct: expressed in transfected cells
T1 sequence (P30559 1-389): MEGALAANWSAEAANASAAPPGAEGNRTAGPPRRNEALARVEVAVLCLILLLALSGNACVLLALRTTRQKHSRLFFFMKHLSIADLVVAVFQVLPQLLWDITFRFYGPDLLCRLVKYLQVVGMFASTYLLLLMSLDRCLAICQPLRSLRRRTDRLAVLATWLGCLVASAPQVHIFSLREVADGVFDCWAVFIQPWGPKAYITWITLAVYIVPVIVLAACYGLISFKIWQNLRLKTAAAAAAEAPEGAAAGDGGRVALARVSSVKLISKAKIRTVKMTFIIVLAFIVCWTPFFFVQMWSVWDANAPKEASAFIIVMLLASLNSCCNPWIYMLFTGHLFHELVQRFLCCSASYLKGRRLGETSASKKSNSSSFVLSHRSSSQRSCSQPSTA
Protocol: (§1) Agonist activity of compounds on the hV1a receptor was determined in a transcriptional reporter assay by transiently transfecting a hV1a receptor expression DNA into HEK-293 cells in concert with a reporter DNA containing intracellular calcium responsive promoter elements regulating expression of firefly luciferase. See Boss, V., Talpade, D. J., Murphy, T. J. J. Biol. Chem. 1996, May 3; 271(18), 10429-10432 for further guidance on this assay. […] To determine selectivity, compounds were tested in luciferase-based transcriptional reporter assays expressing the human oxytocin (hOT) receptor. Assays for other receptors (hV2, hV1b, rat V1a and rat V2) were also conducted.
(§2) The EC50 value given is the geometric mean expressed in nanomol/L (nM). Selectivity values are given as EC50 ratios.

[3] = target: T2, hV1a receptor (Homo sapiens, UniProt P37288); experiment: hV1a receptor transcriptional reporter (luciferase) agonist assay; assay type: cell-based
T2 construct: expressed in transfected cells; host or cells: HEK-293
T2 sequence (P37288 whole entry): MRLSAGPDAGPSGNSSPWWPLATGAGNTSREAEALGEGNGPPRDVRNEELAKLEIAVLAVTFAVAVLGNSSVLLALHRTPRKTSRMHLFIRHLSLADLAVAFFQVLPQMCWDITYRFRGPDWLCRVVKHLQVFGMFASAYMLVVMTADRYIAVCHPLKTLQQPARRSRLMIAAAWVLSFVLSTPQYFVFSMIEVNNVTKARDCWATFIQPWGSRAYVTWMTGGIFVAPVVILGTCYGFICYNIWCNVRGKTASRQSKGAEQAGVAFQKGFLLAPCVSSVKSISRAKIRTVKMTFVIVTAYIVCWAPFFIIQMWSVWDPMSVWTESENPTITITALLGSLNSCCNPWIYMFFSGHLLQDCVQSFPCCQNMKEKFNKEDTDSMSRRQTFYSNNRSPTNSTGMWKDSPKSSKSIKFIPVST
Protocol: as §1, §2

[4] = class symbol, agonist efficacy at hOT receptor compared to AVP
[5] = HEK-293 cells transiently transfected with hV1a receptor, 5 hours exposure, geometric mean, read-out: EC50 hV1a receptor

EC50 [3, 5]	SMILES	selectivity hOT/hV1a [2, 4]	also measured
–	CC[C@H](C)[C@@H]1NC(=O)[C@H](Cc2ccccc2)NC(=O)[C@@H](N)CSSC[C@@H](C(=O)N2CCC[C@H]2C(=O)N[C@@H](CCCNC(C)C)C(=O)NCC(N)=O)NC(=O)[C@H](CC(N)=O)NC(=O)[C@H](CCCC(N)=O)NC1=O [Compound 1, [Phe^2,Hgn^4,Orn(i-Pr)^8]VT] (H-CFI[Aad](NH2)NCP[Orn(iPr)]G-NH2; disulfide 1-6; N-terminus and C-terminus assumed)	+ (selective hV1a receptor agonist; EC50 hOT/hV1a ratio not determined due to very low agonist efficacy (<30% compared to AVP) at the hOT receptor)	in vivo duration relative to AVP [1]: 1.7
–	CCNC(=O)C[C@@H]1NC(=O)[C@H]([C@@H](C)CC)NC(=O)[C@H](Cc2ccccc2)NC(=O)[C@@H](N)CSSC[C@@H](C(=O)N2CCC[C@H]2C(=O)N[C@@H](CCN)C(=O)NCC(N)=O)NC(=O)[C@H](CC(N)=O)NC1=O [Compound 4, [Phe^2,Asn(Et)^4, Dbu^8]VT] (H-CFID(NHEt)NCP[Dab]G-NH2; disulfide 1-6; N-terminus and C-terminus assumed)	+ (selective hV1a receptor agonist; EC50 hOT/hV1a ratio not determined due to very low agonist efficacy (<30% compared to AVP) at the hOT receptor)	in vivo duration relative to AVP [1]: 1.8
4.77 nM	CC[C@H](C)[C@@H]1NC(=O)[C@H](Cc2ccccc2)NC(=O)[C@@H](N)CSSC[C@@H](C(=O)N2CCC[C@H]2C(=O)N[C@@H](CCCN)C(=O)NCC(N)=O)NC(=O)[C@H](CC(N)=O)NC(=O)[C@H](CC(=O)NCCOCCO)NC1=O [Compound 29] (H-CFID(X4)NCP[Orn]G-NH2; disulfide 1-6; N-terminus and C-terminus assumed)	+ (selective hV1a receptor agonist; EC50 hOT/hV1a ratio not determined due to very low agonist efficacy (<30% compared to AVP) at the hOT receptor)	–
3.91 nM	CC[C@H](C)[C@@H]1NC(=O)[C@H](Cc2ccccc2)NC(=O)[C@@H](N)CSSC[C@@H](C(=O)N2CCC[C@H]2C(=O)N[C@@H](CCN)C(=O)NCC(N)=O)NC(=O)[C@H](CC(N)=O)NC(=O)[C@H](CC(=O)NC)NC1=O [Compound 31] (H-CFID(NHMe)NCP[Dab]G-NH2; disulfide 1-6; N-terminus and C-terminus assumed)	+ (selective hV1a receptor agonist; EC50 hOT/hV1a ratio not determined due to very low agonist efficacy (<30% compared to AVP) at the hOT receptor)	–
–	CC[C@H](C)[C@@H]1NC(=O)[C@H](Cc2ccco2)NC(=O)[C@@H](N)CSSC[C@@H](C(=O)N2CCC[C@H]2C(=O)N[C@@H](CCCN)C(=O)NCC(N)=O)NC(=O)[C@H](CC(N)=O)NC(=O)[C@H](CCC(N)=O)NC1=O [Compound 32] (H-C[Ala(2-furyl)]IQNCP[Orn]G-NH2; disulfide 1-6)	–	in vivo duration relative to AVP [1]: 2.1
14.6 nM	CC[C@H](C)[C@@H]1NC(=O)[C@H](Cc2cccs2)NC(=O)[C@@H](N)CSSC[C@@H](C(=O)N2CCC[C@H]2C(=O)N[C@@H](CCCN)C(=O)NCC(N)=O)NC(=O)[C@H](CC(N)=O)NC(=O)[C@H](CC(N)=O)NC1=O [Compound 33] (H-C[2Thi]INNCP[Orn]G-NH2; disulfide 1-6; N-terminus and C-terminus assumed)	+ (selective hV1a receptor agonist; EC50 hOT/hV1a ratio not determined due to very low agonist efficacy (<30% compared to AVP) at the hOT receptor)	–
7.3 nM	CC[C@H](C)[C@@H]1NC(=O)[C@H](Cc2ccsc2)NC(=O)[C@@H](N)CSSC[C@@H](C(=O)N2CCC[C@H]2C(=O)N[C@@H](CCCN)C(=O)NCC(N)=O)NC(=O)[C@H](CC(N)=O)NC(=O)[C@H](CC(N)=O)NC1=O [Compound 35] (H-C[3Thi]INNCP[Orn]G-NH2; disulfide 1-6)	+ (selective hV1a receptor agonist; EC50 hOT/hV1a ratio not determined due to very low agonist efficacy (<30% compared to AVP) at the hOT receptor)	–
11.5 nM	CC[C@H](C)[C@@H]1NC(=O)[C@H](Cc2cccs2)NC(=O)[C@@H](N)CSSC[C@@H](C(=O)N2CCC[C@H]2C(=O)N[C@@H](CCN)C(=O)NCC(N)=O)NC(=O)[C@H](CC(N)=O)NC(=O)[C@H](CC(N)=O)NC1=O [Compound 36] (H-C[2Thi]INNCP[Dab]G-NH2; disulfide 1-6; N-terminus and C-terminus assumed)	+ (selective hV1a receptor agonist; EC50 hOT/hV1a ratio not determined due to very low agonist efficacy (<30% compared to AVP) at the hOT receptor)	–
7.45 nM	CC[C@H](C)[C@@H]1NC(=O)[C@H](Cc2ccsc2)NC(=O)[C@@H](N)CSSC[C@@H](C(=O)N2CCC[C@H]2C(=O)N[C@@H](CCN)C(=O)NCC(N)=O)NC(=O)[C@H](CC(N)=O)NC(=O)[C@H](CC(N)=O)NC1=O [Compound 37] (H-C[3Thi]INNCP[Dab]G-NH2; disulfide 1-6; N-terminus and C-terminus assumed)	+ (selective hV1a receptor agonist; EC50 hOT/hV1a ratio not determined due to very low agonist efficacy (<30% compared to AVP) at the hOT receptor)	–
10.1 nM	CC[C@H](C)[C@@H]1NC(=O)[C@H](Cc2ccco2)NC(=O)[C@@H](N)CSSC[C@@H](C(=O)N2CCC[C@H]2C(=O)N[C@@H](CCCN)C(=O)NCC(N)=O)NC(=O)[C@H](CC(N)=O)NC(=O)[C@H](CC(N)=O)NC1=O [Compound 38] (H-C[Ala(2-furyl)]INNCP[Orn]G-NH2; disulfide 1-6; N-terminus and C-terminus assumed)	+ (selective hV1a receptor agonist; EC50 hOT/hV1a ratio not determined due to very low agonist efficacy (<30% compared to AVP) at the hOT receptor)	–
–	CC[C@H](C)[C@@H]1NC(=O)[C@H](Cc2ccco2)NC(=O)[C@@H](N)CSSC[C@@H](C(=O)N2CCC[C@H]2C(=O)N[C@@H](CCCNC(C)C)C(=O)NCC(N)=O)NC(=O)[C@H](CC(N)=O)NC(=O)[C@H](CC(N)=O)NC1=O [Compound 42] (H-C[Ala(2-furyl)]INNCP[Orn(iPr)]G-NH2; disulfide 1-6)	–	EC50 [3]: 6.25 nM; selectivity hOT/hV1a [2]: + (key: +: selective hV1a receptor agonist; EC50 hOT/hV1a ratio not determined due to very low agonist efficacy (<30% compared to AVP) at the hOT receptor)
13.7 nM	CC[C@H](C)[C@@H]1NC(=O)[C@H](Cc2cccs2)NC(=O)[C@@H](N)CSSC[C@@H](C(=O)N2CCC[C@H]2C(=O)N[C@@H](CCCNC(C)C)C(=O)NCC(N)=O)NC(=O)[C@H](CC(N)=O)NC(=O)[C@H](CC(N)=O)NC1=O [Compound 43] (H-C[2Thi]INNCP[Orn(iPr)]G-NH2; disulfide 1-6; N-terminus and C-terminus assumed)	+ (selective hV1a receptor agonist; EC50 hOT/hV1a ratio not determined due to very low agonist efficacy (<30% compared to AVP) at the hOT receptor)	–
14.5 nM	CC[C@H](C)[C@@H]1NC(=O)[C@H](Cc2ccco2)NC(=O)[C@@H](N)CSSC[C@@H](C(=O)N2CCC[C@H]2C(=O)N[C@@H](CCN)C(=O)NCC(N)=O)NC(=O)[C@H](CC(N)=O)NC(=O)[C@H](CC(N)=O)NC1=O [Compound 44] (H-C[Ala(2-furyl)]INNCP[Dab]G-NH2; disulfide 1-6; N-terminus and C-terminus assumed)	+ (selective hV1a receptor agonist; EC50 hOT/hV1a ratio not determined due to very low agonist efficacy (<30% compared to AVP) at the hOT receptor)	–
–	CC[C@H](C)[C@@H]1NC(=O)[C@H](Cc2ccccc2)NC(=O)[C@@H](N)CSSC[C@@H](C(=O)N2CCC[C@H]2C(=O)N[C@@H](CCCNCCC(C)C)C(=O)NCC(N)=O)NC(=O)[C@H](CC(N)=O)NC(=O)[C@H](CCC(N)=O)NC1=O [Compound 45] (H-CFIQNCP[X3]G-NH2; disulfide 1-6; N-terminus and C-terminus assumed)	–	EC50 [3]: 1.65 nM; selectivity hOT/hV1a ([2]; EC50 ratio): 18
5.7 nM	CCNC(=O)C[C@@H]1NC(=O)[C@H]([C@@H](C)CC)NC(=O)[C@H](Cc2ccccc2)NC(=O)[C@@H](N)CSSC[C@@H](C(=O)N2CCC[C@H]2C(=O)N[C@@H](CCCN)C(=O)NCC(N)=O)NC(=O)[C@H](CC(N)=O)NC1=O [Compound 48] (H-CFID(NHEt)NCP[Orn]G-NH2; disulfide 1-6; N-terminus and C-terminus assumed)	+ (selective hV1a receptor agonist; EC50 hOT/hV1a ratio not determined due to very low agonist efficacy (<30% compared to AVP) at the hOT receptor)	–
3.58 nM	CC[C@H](C)[C@@H]1NC(=O)[C@H](Cc2ccccc2)NC(=O)[C@@H](N)CSSC[C@@H](C(=O)N2CCC[C@H]2C(=O)N[C@@H](CCCN)C(=O)NCC(N)=O)NC(=O)[C@H](CC(N)=O)NC(=O)[C@H](CC(=O)NC)NC1=O [Compound 49] (H-CFID(NHMe)NCP[Orn]G-NH2; disulfide 1-6; N-terminus and C-terminus assumed)	+ (selective hV1a receptor agonist; EC50 hOT/hV1a ratio not determined due to very low agonist efficacy (<30% compared to AVP) at the hOT receptor)	–
